Measurements published in patent US20120264703A1, “Methods And Compositions For The Treatment Of Anxiety Disorders, Including Post Traumatic Stress Disorder (PTSD) And Related Central Nervous System (CNS) Disorders” (priority 2010, published 2012).
Each block holds one compound with its values, some of them ahead of it.

Tests used:
alkaline phosphatase = target: T1, alkaline phosphatase (Bos taurus, UniProt P19111); test: Dephosphorylation of phosphocarvedilol by alkaline phosphatase (HPLC); format: biochemical; details: alkaline phosphatase 1390 Units, overnight at 37° C., TRIS pH 8.1
T1 construct: purchased Sigma P0114
Description: The dried residue was reconstituted in a 1 mL solution of TRIS (pH 8.1, 0.05M) and NaCl (0.1M) for dephosphorylation with alkaline phosphatase. Dephosphorylation was initiated by adding 10 μL (1390 Units) of alkaline phosphatase (Sigma P0114) and incubating overnight at 37° C. 10 μL aliquots were removed and diluted to 100 μL in mobile phase before analyzing by injecting onto the HPLC column (as described above) in 20 μL amounts. After treatment with the alkaline phosphatase, a carvedilol peak with a retention time of about 14.95 minutes was detected.

[1] = cited from earlier work
[2] = test system: patients with Post Traumatic Stress Disorder (PTSD); test: Clinical trial of carvedilol versus placebo in the treatment of PTSD (efficacy scales); format: in vivo, human; parameters: key to Davidson Trauma Scale (DTS) change score / mean change score (DTS): change in DTS total score (34-item patient-rated, max 136); key to Insomnia Severity Index (ISI) change score: change in ISI score (self-rated 7-item scale, max 28); key to Davidson Trauma Scale (DTS) change score, mean change (SD): mean (SD) change in DTS total score (max 136); details: for Clinician Administered PTSD Scale (CAPS II) change score: completer only analysis
Excerpt: The efficacy of carvedilol was examined in a clinical trial using a parallel group, randomized, double-blind method with 50% of the outpatients receiving a flexible dose of alpha and beta blocker carvedilol for treatment of PTSD and the other 50% receiving a flexible close of matching placebo tablets. The trial consisted of a one week screening period followed by baseline symptom measurement and five weeks of PTSD pharmacotherapy. Patient assessments took place each week throughout the course of the trial. Patients between 18 and 70 years of age were eligible for enrollment. A minimum score of 60 was required on the Clinician Administered PTSD Scale (CAPS-II) at the screening visit and all patients met clinical criteria for PTSD in accordance with the Diagnostic and Statistical Manual IV and confirmed by the Mini International Neuropsychological Interview (MINI). Eighty-three subjects were enrolled and randomized to carvedilol or placebo. […] The final efficacy analysis included 38 patients allocated to carvedilol, and 39 patients allocated to placebo. All of the patients, study coordinators, and principal investigators were blinded from the patient treatment allocation. Patients were randomly assigned to kits containing carvedilol or placebo at the baseline visit. At the baseline visit, all patients were titrated to one dose of 3.125 mg carvedilol or placebo in the morning and an additional dose in the evening for the first week of the trial (6.25 mg carvedilol per day). At the discretion of the investigator the dose of carvedilol or placebo could be increased to a maximum of two tablets (6.250 mg carvedilol) in the morning and two tablets (6.250 mg carvedilol) in the evening during the following visit (week 1). At the week 2 visit the investigator could increase the dose of carvedilol or placebo to a maximum of 5 pills daily (15.625 mg carvedilol per day) based on patient tolerability and treatment response. After the second visit investigators were encouraged to maintain patient dose throughout the remainder of the five week trial although they were allowed to decrease the dose in the event that tolerability issues arose. Although a minimum score of 60 on the CAPS-II was required at the screening visit as entry criteria, the Davidson Trauma Scale (DTS) was used as primary outcome measurement. The DTS is a 34-item patient rated scale with a maximum total score of 136. The DTS is designed to measure frequency and severity of three subtypes of PTSD symptoms: intrusion, avoidance and hyperarousal. Patients completed the DTS at the baseline visit and at each visit throughout the course of the trial. Secondary outcome measures included the Insomnia Severity Index (ISI), the Clinician Global Impressions (CGI) Scale, and each of the three DTS subscales. The ISI is a self-rated 7-item scale (maximum score=28) designed to measure insomnia during clinical research. The ISI was completed at each visit throughout the trial. The CGI was also completed during each visit. As an additional secondary outcome, the change in CAPS-II score was evaluated from the screening visit to the last trial visit for patients that completed the trial. The trial data analysis was designed to investigate the hypothesis that carvedilol would provide relief from symptoms for patients clinically diagnosed with PTSD. To evaluate this possibility, an analysis of covariance (ANCOVA) test was conducted on the primary outcome variable and a series of independent samples t tests were conducted on secondary outcome variables. Each statistical test was conducted using SPSS version 19.0 (IBM). All patients that completed the baseline visit and at least one follow up measurement were included in the analysis. […] Therefore, the final completed measurement of PTSD symptoms was used as the end data point in the event that patients terminated from the trial early. […]

[3] = Pharmacokinetic properties of carvedilol by oral dosage form and transdermal patch (Example 6); format: in vivo, human
Description: The pharmacokinetic properties of orally and transdermal patch delivered carvedilol can be measured in a human subject or animal model using standard procedures. In brief, a carvedilol oral dosage form of between 5-15 mg can be administered to a human subject in a tablet or capsule. A similar dosage can be administered to a human subject from a transdermal patch that is formulated and evaluated for skin permeation (such as as described by Ubaidulla et al., 2007). After administration of carvedilol, blood samples are drawn from the subject at time intervals (such as 1, 2, 3, 5, 8, 12, and 24 hours), plasma is separated by centrifugation, and plasma samples are stored at −70° C. until analyzed. The plasma carvedilol concentration is measured by reverse phase-high performance liquid chromatography (Ubaidulla et al., 2007).
The plasma concentration of carvedilol at different time intervals is subjected to pharmacokinetic analysis to calculate various parameters: maximum plasma concentration (Cmax), time to reach maximum concentration (Tmax), and area under the plasma concentration-time curve (AUC0→24) as described (Ubaidulla et al., 2007). The values of Cmax and Tmax are read directly from the arithmetic plot of time vs plasma concentration of carvedilol. The AUC is calculated by using the trapezoidal rule. […]

[4] = Clinical trial of carvedilol versus placebo in PTSD: adverse events, blood pressure, heart rate; format: in vivo, human
Excerpt: The efficacy of carvedilol was examined in a clinical trial using a parallel group, randomized, double-blind method with 50% of the outpatients receiving a flexible dose of alpha and beta blocker carvedilol for treatment of PTSD and the other 50% receiving a flexible close of matching placebo tablets. The trial consisted of a one week screening period followed by baseline symptom measurement and five weeks of PTSD pharmacotherapy. Patient assessments took place each week throughout the course of the trial. At the baseline visit, all patients were titrated to one dose of 3.125 mg carvedilol or placebo in the morning and an additional dose in the evening for the first week of the trial (6.25 mg carvedilol per day). At the discretion of the investigator the dose of carvedilol or placebo could be increased to a maximum of two tablets (6.250 mg carvedilol) in the morning and two tablets (6.250 mg carvedilol) in the evening during the following visit (week 1). At the week 2 visit the investigator could increase the dose of carvedilol or placebo to a maximum of 5 pills daily (15.625 mg carvedilol per day) based on patient tolerability and treatment response. After the second visit investigators were encouraged to maintain patient dose throughout the remainder of the five week trial although they were allowed to decrease the dose in the event that tolerability issues arose.

male Sprague-Dawley rats = test: Escape/avoidance behavior after tailshock stress (Example 1); format: in vivo, rat; details: compared to animals that did not receive medication
Excerpt: Subjects are male, Sprague-Dawley (SD) rats. They are approximately 60-days-old and 300-350 g at the time of testing. They are maintained on ad lib food and water except during the stress and escape/avoidance sessions. Subjects are maintained on a 12:12 light/dark cycle, with lights on at 0700. […] The animals that receive shocks are restrained in plastic tubes (Harvard Apparatus, Inc, Holliston, Mass., USA) and have tail electrodes attached. The single shock session consists of forty 3-s, 2-mA tailshocks, presented on a variable time (VT) 3-min schedule, making the shock session approximately 2 h in duration. Escape/avoidance sessions are conducted in 4 operant chambers (Coulbourn, Inc, Allentown, Pa., USA). The chambers are 30.5 cm wide×25.4 cm deep×30.5 cm high and have a lever mounted on one wall. Subjects are allowed approximately 1 min to explore the chamber before the session begins. The trial begins with a warning signal and houselight. […] 60 s of the warning signal, they receive 1.0-mA footshock through the grid floor. […] A […] shock is classified as an “escape”, while a response that occurred during the initial 60 s of the warning signal before the shock is classified as an “avoidance.” The number of escape and avoidance responses by hour across the session, percent avoidance, and the number of leverpresses during the safety period (a putative measure of anxiety) are analyzed. […]

[5] = low solubility and low absorption; cited from earlier work
[6] = in vivo; cited from earlier work
[7] = males and females that were not veterans
[8] = males and females that were not veterans (n=31)

T1 sequence (P19111 20-506): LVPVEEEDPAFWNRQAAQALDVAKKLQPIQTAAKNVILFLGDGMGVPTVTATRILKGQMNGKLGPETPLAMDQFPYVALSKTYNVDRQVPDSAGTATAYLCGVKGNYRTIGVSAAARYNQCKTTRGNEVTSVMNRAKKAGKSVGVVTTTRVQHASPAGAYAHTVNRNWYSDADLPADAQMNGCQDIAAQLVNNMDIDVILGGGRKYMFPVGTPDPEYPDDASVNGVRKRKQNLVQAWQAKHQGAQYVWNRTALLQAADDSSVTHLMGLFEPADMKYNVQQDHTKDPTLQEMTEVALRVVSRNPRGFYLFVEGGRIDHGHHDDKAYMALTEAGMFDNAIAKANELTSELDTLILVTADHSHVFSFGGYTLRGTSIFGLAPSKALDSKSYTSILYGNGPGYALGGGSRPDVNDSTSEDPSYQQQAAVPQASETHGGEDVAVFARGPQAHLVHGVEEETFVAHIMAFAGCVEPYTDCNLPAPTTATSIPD

generation of carvedilol by enzymatic dephosphorylation (HPLC) (alkaline phosphatase): the carvedilol HPLC peak reappeared
Structure (SMILES): COc1ccccc1OCCNCC(COc1cccc2[nH]c3ccccc3c12)OP(=O)([O-])[O-].[Na+].[Na+] (stereo not drawn)

Cmax, oral versus transdermal patch administration ([3]; oral and transdermal patch): approximately similar | AUC, transdermal patch relative to oral administration ([3]; transdermal patch vs oral): 2.5 to 3 fold
Structure (SMILES): COc1ccccc1OCCNCC(O)COc1cccc2[nH]c3ccccc3c12 (racemic) [carvedilol, (±) 1-(9H-carbazol-4-yloxy)-3-[[2(2-methoxyphenoxy)ethyl]amino]-2-propanol]
logarithmic partition coefficient, log octanol/buffer pH 7.4 [1]: 0.61±0.06 | mean change score (DTS) ([2]; 15 female assault victims (physical or sexual assault)): −31.8 | mean DTS change score ([2]; all patients assigned to carvedilol (n=38), baseline to final visit, LOCF, 6.25-15.625 mg per day, five weeks): −24.6 (SD±23.8) | effect size d, change score, carvedilol vs placebo ([2]; female assault victims): 0.95 | effect size d, DTS Avoidance Subscale, carvedilol vs placebo [2, 7]: d = 0.21 | effect size d, DTS Hyperarousal Subscale, carvedilol vs placebo [2, 7]: d = 0.18 | effect size d, DTS Intrusiveness Subscale, carvedilol vs placebo [2, 7]: d = 0.61 | effect size d, DTS change score, carvedilol vs placebo [2, 7]: d = 0.36 | effect size d, Insomnia Severity Index, carvedilol vs placebo [2, 7]: d = 0.47 | DTS Avoidance Subscale change score [2, 8]: −8.7 ± 12.4 | DTS Hyperarousal Subscale change score [2, 8]: −7.7 ± 6.3 | DTS Intrusiveness Subscale change score [2, 8]: −8.8 ± 8.8 | Insomnia Severity Index (ISI) change score [2, 8]: −5.8 ± 6.8 | Davidson Trauma Scale (DTS) change score, mean change (SD) ([2]; males and females that were not veterans (n=31, 69% female), LOCF): −25.2 ± 25.3 | Clinician Administered PTSD Scale (CAPS II) change score [2, 7]: −20.6 ± 22.2 | Clinician's Global Impression (CGI) change score ([2]; men (n=17)): −1.2 ± 1.3 | DTS Avoidance Subscale change score ([2]; men (n=17)): −6.4 ± 8.3 | DTS Hyperarousal Subscale change score ([2]; men (n=17)): −6.6 ± 7.4 | DTS Intrusiveness Subscale change score ([2]; men (n=17)): −5.9 ± 7.5 | Insomnia Severity Index (ISI) change score ([2]; men (n=17)): −6.8 ± 6.7 | Davidson Trauma Scale (DTS) change score ([2]; men (n=17), baseline to final visit, LOCF): −18.8 (SD±19.1) | Davidson Trauma Scale (DTS) change score ([2]; men (n=17), baseline to final visit, LOCF, listed as Carvedilol): −18.8 ± 19.1 | Clinician Administered PTSD Scale (CAPS II) change score ([2]; men, screening visit to week 7 final visit): −16.2 ± 19.0 | Clinician's Global Impression (CGI) change score ([2]; women (n=21)): −1.8 ± 0.2 | DTS Avoidance Subscale change score ([2]; women (n=21)): −10.4 ± 14.0 | DTS Hyperarousal Subscale change score ([2]; women (n=21)): −9.0 ± 8.9 | DTS Intrusiveness Subscale change score ([2]; women (n=21)): −9.9 ± 8.2 | Insomnia Severity Index (ISI) change score ([2]; women (n=21)): −5.1 ± 6.3 | Davidson Trauma Scale (DTS) change score ([2]; women (n=21), baseline to final visit, LOCF): −29.2 (SD±26.5) | Davidson Trauma Scale (DTS) change score ([2]; women (n=21), baseline to final visit, LOCF, listed as Carvedilol): −29.2 ± 26.5 | Clinician Administered PTSD Scale (CAPS II) change score ([2]; women, screening visit to week 7 final visit): −21.7 ± 25.2 | patients that reported adverse events ([4]; 28 patients assigned to carvedilol): 66% | mean change in diastolic blood pressure ([4]; baseline visit to end of study): −0.7 mm Hg | mean change in heart rate ([4]; baseline visit to end of study): −3.7 beats/minute | mean change in systolic blood pressure ([4]; baseline visit to end of study): −4.3±9.7 mm Hg | adverse events that occurred in over 5% of carvedilol patients ([4]; human, in vivo): somnolence, headache and common cold | number of avoidance responses 24 h after tailshock (male Sprague-Dawley rats): decrease in the number of avoidance response 24 h later | Biopharmaceutics Classification System class [5]: Class 4 | plasma half-life [6]: approximately 6 hours
